From patent US7511042B2, “Triazole compounds” (Boehringer Ingelheim Pharmaceuticals, Inc., priority 2003, dated 2009) come the findings set out here.

SMILES strings stand for the structures.

Regarding `COc1cnc(C(C)(C)C)cc1NC(=O)c1ccc(C)c(-n2cc(C(=O)NCC(C)(C)C)nn2)c1` [Example 12, 1-[5-(2-tert-Butyl-5-methoxy-pyridin-4-ylcarbamoyl)-2-methyl-phenyl]-1H-1,2,3-triazole-4-carboxylic acid (2,2-dimethyl-propyl)-amide], the melting point is 181 to 182 °C (dec.).

As for `Cc1ccc(C(=O)Nc2cc(C(C)(C)C)ccc2[S+](C)[O-])cc1-n1cc(C(=O)NCC(C)(C)C)nn1` (centres unmarked) [Example 13, 1-[5-(5-tert-Butyl-2-methanesulfinyl-phenylcarbamoyl)-2-methyl-phenyl]-1H-1,2,3-triazole-4-carboxylic acid (2,2-dimethyl-propyl)-amide], the melting point is 74 to 78 °C (dec.).
